# Results from US20260083838A1, “Adjuvant Composition Comprising STING Agonists” (GlaxoSmithKline Biologicals SA, priority 2021, published 2026).
# Legend:
# Type in all cases: physicochemical
# [1] = Adsorption of the STING agonist and the antigen on Al(OH)3 (supernatant after centrifugation); conditions: groups 5, 6, 7, 8: 45, 15, 5 μg/ml STING agonist with 111 μg/ml Al(OH)3, or 15 μg/ml with 35 μg/ml Al(OH)3; antigen 20 μg/mL
# Protocol: (§1) The compatibility between the antigen and the STING agonist was assessed, on the one hand, by determining the amount of the STING agonist recovered (using HPLC) in the supernatant after centrifugation of the formulations described in the above groups 2, 3 and 4, and, on the other hand, by determining the amount and profile of the antigen recovered (using HPLC) in the supernatant after centrifugation of the formulations described in the above groups 2, 3 and 4. The adsorption of the STING agonist and the antigen on Al(OH)3 was similarly assessed by determining the amount of STING agonist and amount and profile of the antigen, respectively, recovered) in the supernatant after centrifugation of the formulations described in the above groups 5, 6, 7 and 8. The concentration of the HSV-2 gE-gI antigen was 20 μg/mL in each group. The precise methodology for preparing the STING agonist and Al(OH)3 formulation was as follows: a solution of Al(OH)3 in water for injection was prepared, the required amount of STING agonist was added, the required amount of HSV-2 gE-gI to have 20 μg/mL in final solution was added. The solution was then mixed for 30 minutes at room temperature. NaCl was added, and the mixture was mixed for 5 minutes.
# [2] = Compatibility between the antigen and the STING agonist (HPLC, SDS PAGE of supernatant after centrifugation); conditions: groups 2, 3, 4: 45, 15, 5 μg/ml STING agonist aqueous, 20 μg/mL HSV-2 gE-gI, no added Al(OH)3
# Protocol: as §1
# [3] = Minimal amount of Al(OH)3 needed to fully adsorb the STING agonist (fluorometry of supernatant); conditions: STING agonist 45 μg/ml, Al(OH)3 0 to 200 μg/ml (by reference to Al3+)
# Protocol: 1.2 Next, the minimal amount of Al(OH)3 needed to fully adsorb the STING agonist was determined. Compound 1 was used. The amount of the STING agonist was fixed at 45 μg/ml and AL(OH)3 varied from 0 to 200 μg/ml (by reference to Al^3+), so that different ratios STING agonist:Al(OH)3 were tested. The different formulations (as indicated in Table 2) were mixed under agitation for 1 h. Samples were then centrifuged for 10 min at 8000 rpm. The supernatant of the centrifuged samples was then analysed to characterize the amount of STING agonist which was not adsorbed. The quantification was performed by fluorometry.
structure (smiles),measurement,setting,value
"CCn1nc(C)cc1C(=O)/N=c1\[nH]c2cc(C(N)=O)cc(OC)c2n1C/C=C/Cn1/c(=N/C(=O)c2cc(C)nn2CC)[nH]c2cc(C(N)=O)cc(OCCCOP(=O)(O)O)c21 [Compound 1, 3-(((E)-6-carbamoyl-3-((E)-4-((E)-5-carbamoyl-2-((1-ethyl-3-methyl-1H-pyrazole-5-carbonyl)imino)-7-methoxy-2,3-dihydro-1H-benzo[d]imidazol-1-yl)but-2-en-1-yl)-2-((1-ethyl-3-methyl-1H-pyrazole-5-carbonyl)imino)-2,3-dihydro-1H-benzo[d]imidazol-4-yl)oxy)propyl dihydrogen phosphate]",adsorption of STING agonist on Al(OH)3 (STING agonist in supernatant),[1],entire amount of the STING agonist was adsorbed on Al(OH)3
same,amount of STING agonist in supernatant of centrifuged vs non-centrifuged samples,[2],no aggregation or precipitation occurs in the presence of the antigen
same,adsorption of STING agonist on Al(OH)3 (in words),[3],generally well adsorbed on Al(OH)3
same,maximum ratio STING agonist to aluminium hydroxide allowing for an optimal adsorption,[3],about 1.5
